Measured values reported in US20120220535A1, “CYCLIC-GLUR6 ANALOGS, METHODS OF TREATMENT AND USE” (priority 2009, published 2012).
“Also recorded” adds a separate entry of the source.

Tests used:
[1] = system: acute slices of rat retinal and brain tissue; experiment: Multi-electrode array electrophysiological screen for neuroprotection against kainate- or NMDA-induced death; format: cell-based; details: 30 uM; pretreatment, or cotreatment with an NMDA receptor agonist; slices perfused about 30 min with NMDA or kainate agonists
From the text: One aspect of the present invention usefully employs electrophysiological screening of Structure 1. Particular attention is drawn to an electrophysiological assay that rapidly screens for compounds which are inhibitors that target neuron-specific PDZ domains. Recordings of cellular activity were made from acute slices of rat retinal and brain tissue to examine the effects of Structure 1 on synaptic Kainate/AMPA, NMDARs and to test for protection against excitotoxic insults. Kainate/AMPA and NMDAR components were distinguished pharmacologically. Noted are the selective AMPA-antagonist NBQX and the competitive NMDA-antagonist CPP. A multi-electrode array was used that enabled examination of activity from sixty neurons simultaneously. This array addressed whether a test compound provided neuroprotection against kainate or N-methyl-D-aspartic acid (NMDA)-induced death. Briefly, slices were perfused for prolonged periods (about 30 min) with NMDA or kainate agonists until activity in half of the neurons is lost and responses cannot be rescued by washing out the NMDA or kainate (assumed to be resulting from neuronal death).

[2] = system: hippocampal neurons; experiment: Excitotoxic insult in hippocampal neurons (loss of functional activity); format: cell-based; details: co-application with excitotoxic insult
From the text: This loss was prevented by the co-application of the compound of Structure 1. Results were confirmatory of the retinal data and extends it into tissues that are more strongly associated with CNS disorders such as Stroke and neurodegenerative diseases. Noted is therapeutic treatment for autism disorders and cognitive decline symptomatology conditions.

[3] = Uptake in the retina after intravitreal injection of fluorescently tagged compound; format: in vivo
From the text: Uptake in the retina was observed as follows. […] In numerous populations of retinal neurons located in both the ganglion cell (GCL) and inner nuclear layers.

[4] = Intrathecal injection in rats, distribution in spinal cord and brain; format: in vivo
Protocol: Intrathecal injection of Structure 1 compound in rats was tested. Rats were prepped for intrathecal injection containing 16 nmol of Structure 1 compound at the level of CV2. 24 hrs following the injection the rats were perfused with 4% PFA and frozen cross-sections of the cord were mounted on glass slides and photographed.

[5] = system: ischemic episode; experiment: Therapeutic protocol in stroke (Example 2); format: in vivo, human; details: 50 mg/Kg i.v. within 2 hours of onset; outcome within 48 hours; person
Protocol: A person presents with an ischemic episode resulting sudden numbness the face, and left arm, confusion, and trouble speaking. […] Doses of from about 1 to about 100 mg/Kg are noted.

[6] = rats, 16 nmol intrathecal at CV2, 24 hrs after injection

For “CONH2-(Arg)7-Cys-Cys-Lys-Asn-Tyr-Lys-c[-Lys-Thr-Glu(βAla)Val [Structure 1]”, the “prevention of neuronal death / cell death” value [1] was “provided efficacy and potency in preventing neuronal death; also recorded: prevented cell death”, the “permanent loss of functional activity after excitotoxic insult” value [2] was “prevented” and the “uptake pattern in retina” value ([3]; 1.5-6 nmol, 6 hrs following intravitreal injection) was roughly 50%. The “accumulation within ganglion cell axons” value ([3]; intravitreal injection, labeling at the optic nerve head) was “selectively accumulated within ganglion cell axons”, the “crossing of vitreal/retina barrier” value ([3]; tagged with a fluorescent marker, administered intravitrealy) was “crossed the vitreal/retina barrier” and the “accumulation in brain regions after cervical intrathecal injection” value [4, 6] was “accumulate in cells located in the cortex, hippocampus, brainstem and striatum”. For the same substance, the “crossing of pia mater/brain barrier and accumulation in spinal cord neurons” value [4, 6] was “crosses the pia mater/brain barrier and selectively accumulates in neurons located within the gray matter of the cord”, the “crossing of pia mater/brain barrier” value ([4]; tagged with a fluorescent marker, localizes in neurons within retina, spinal cord and brain) was “readily cross the pia mater/brain barrier” and the “patient outcome after ischemic episode” value [5] was “recovers without significant brain damage”.
